Where two headings read alike, the source gives them in different places.
Assays:
[1] = tested on: soybean seedlings cv RAS 04; conditions: in vivo
Experimental: (§1) Treated or untreated soybean seeds were allowed to dry under laminar flow for 24 h before sowing.
Plastic Box of 500 cc were filled with 250 ml extra fine (vermiculite up to 2 5 cm of the top 3 boxes per treatment. 50 ml of sterilized soybean seeds previously inoculated with Sclerotinia sclerotiorum (strain Sscl wt) grounded and mixed with XF vermiculite were spread over the 250 ml vermiculite. Same was done with the non-inoculated seeds serving as a reference for the germination test.
The inoculum was covered with 100 ml (1 cm) of XF vermiculite, and then 9 untreated or treated 9 soybean seeds were sown in each box. Seeds were covered with 150 ml (1.5 cm) of XF vermiculite. The substrate was moistened with 200 ml of tap water and then weekly once with tap water and once with a 0 5 g/l nutrients solution (Plant Prod, Ltd N P K 20 20 20 and micronutrients). The lid was punctured and then placed on each box for 5 days to maintain saturated humidity. Boxes were placed in a climatic chamber with a photoperiod of 16 h light/8 h darkness, 2424° C. day/1818° C. night and a relative humidity of 85.
Phytotoxicity assessments were carried out checking analyzing the following parameters: • a. Rate of emergence of soybean seedlings after 7 days post sowing dps. • b. General development (pictures) of the aerial part of the soybean plants after 3 weeks of incubation

[2] = tested on: soybean seedlings cv RAS 04; conditions: in vivo; remark: listed apart in the source
Experimental: Disinfected seed surface of the soybean cultivar RAS 04 from RAGT were treated with the laboratory seed dressing equipment called Bol Hégé with the following products: • ADM 00050 F 1 A (500 SC) at 0.002-0.005-0.01-0.02 and 0.05 L/100 Kg seeds (1-2.5-5-10-25 g ai/100 Kg seeds), without coating agent. • Vibrance duo (25+25 g ai/L of Fludioxonil and Sedaxane SC) at 0.2 L/100 Kg seeds, corresponding to 5+5 g ai/100 Kg seeds of Fludioxonil and Sedaxane • Santhal (465 g ai/L of Metalaxyl-M (Mefenoxam) EC) at 0.064 L/100 Kg seeds (3 g ai/100 Kg seeds of Metalaxyl-M=Mefenoxam) without coating agent • Sterile distilled water Untreated Control, without coating agent
as §1
Plastic Box of 500 cc were filled with 250 ml extra fine (vermiculite up to 2 5 cm of the top 3 boxes per treatment. 50 ml of sterilized soybean seeds previously inoculated with Rhizoctonia solani (strain RsolAG 2 2) grounded and mixed with XF vermiculite were spread over the 250 ml vermiculite. Same was done with the non-inoculated seeds serving as a reference for the germination test.
The inoculum was covered with 100 ml (1 cm) of XF vermiculite, and then 9 untreated or treated 9 soybean seeds were sown in each box. Seeds were covered with 150 ml (1.5 cm) of XF vermiculite. […]

SMILES: COCC(=O)N(c1c(C)cccc1C)[C@H](C)C(=O)OC [Metalaxyl-M]
- Seedling emergence rate (% of the total) [1]: 77.8 +/− 6.4a % of the total
- Seedling emergence rate (% of the total) [2]: 77.8 +/− 6.4a % of the total

— patent publication US20240172750A1, “5-Fluoro-4-Imino-3-Methyl-1-Tosyl-3,4-Dihydropyrimidin-2(1H)-One for Controlling Plant Diseases” (Adama Makhteshim Ltd., priority 2021, published 2024)
